Results on 5 molecules are retold here after patent US12577245B2, “Sulfonyl benzamide derivatives as Bcl-2 inhibitors” (ASCENTAGE PHARMA (SUZHOU) CO., LTD., priority 2021, dated 2026).

The target of one assay is Bcl-2 WT (Homo sapiens, UniProt P10415). The experiment in a line: Bcl-2 WT inhibition, fluorescence polarization (Flu-BIM tracer) binding assay. The following applies: FP; 20 nM Bcl2, 5 nM Flu-BIM, 1 h incubation; read-out: Bcl-2 w.t. (FP).
A further assay deals with RS4; 11Bcl-2-G101V cells. As to the kind of experiment: CellTiter-Glo (CTG) cell viability assay in RS4;11-Bcl-2-G101V cells. It counts as cell-based. The following applies: 72 h, 10% FBS, 3 days. In short, it runs like this:
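Luminescent ATP read-out (CellTiter-Glo) after 3-day compound treatment at 37 °C gave viability relative to vehicle, from which IC50 was fitted. Mutant Bcl-2 RS4;11 cells were seeded at 10000 per well and rested 4 h before dosing.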
(In ATP-based viability assays light output follows the ATP content of the culture.)

Another assay has as its system MV-4-11 cells. The experiment in a line: CCK-8 cell viability assay in MV-4-11 cells. Type of assay: cell-based. The settings on record: Homo sapiens, MV4-11, 72 h, 10% FBS, 3 days. The essentials: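 IC50 values come from vehicle-normalized CCK-8 absorbance at 450 nm, read 1–4 h after reagent addition. Before that, MV-4-11 cells seeded at 20000 per well were cultured 3 days at 37 °C with a compound dilution series.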
(In general: Tetrazolium dyes change colour on reduction, which living cells bring about.)

Chain of Bcl-2 WT (P10415 whole entry): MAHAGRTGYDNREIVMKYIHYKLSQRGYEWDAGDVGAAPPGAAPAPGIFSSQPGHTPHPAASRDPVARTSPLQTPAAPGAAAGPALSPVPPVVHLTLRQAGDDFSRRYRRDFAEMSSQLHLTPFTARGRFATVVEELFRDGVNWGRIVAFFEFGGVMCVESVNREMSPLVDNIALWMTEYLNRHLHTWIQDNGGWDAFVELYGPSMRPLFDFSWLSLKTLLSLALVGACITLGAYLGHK

With `CC1(C)CCC(CN2CCN(c3ccc(C(=O)NS(=O)(=O)c4ccc(NC[C@H]5CC[C@](C)(O)CC5)c([N+](=O)[O-])c4)c(Oc4cnc5[nH]ccc5c4)c3)CC2)=C(c2cc(-c3ccc(C(F)(F)F)cc3)cs2)C1` [Example 41, 2-((1H-pyrrolo[2,3-b]pyridin-5-yl)oxy)-4-(4-((4,4-dimethyl-2-(4-(4-(trifluoromethyl)phenyl)thiophen-2-yl)cyclohex-1-en-1-yl)methyl)piperazin-1-yl)-N-((4-((((1r,4r)-4-hydroxy-4-methylcyclohexyl)methyl)amino)-3-nitrophenyl)sulfonyl)benzamide], the IC50 at Bcl-2 WT was 44 nM; with RS4; 11Bcl-2-G101V cells it was 3230 nM; in the assay on MV-4-11 cells it was 50 nM.
The like results for `CC1(C)CCC(CN2CCN(c3ccc(C(=O)NS(=O)(=O)c4ccc(NC[C@H]5COCCO5)c([N+](=O)[O-])c4)c(Oc4cnc5[nH]ccc5c4)c3)CC2)=C(c2cc(-c3ccc(F)cc3F)cs2)C1` [Example 42, (S)—N-((4-(((1,4-dioxan-2-yl)methyl)amino)-3-nitrophenyl)sulfonyl)-2-((1H-pyrrolo[2,3-b]pyridin-5-yl)oxy)-4-(4-((2-(4-(2,4-difluorophenyl)thiophen-2-yl)-4,4-dimethylcyclohex-1-en-1-yl)methyl)piperazin-1-yl)benzamide] were, in that order, 38.7 nM, 480 nM and 26 nM.
As to `CC1(C)CCC(CN2CCN(c3ccc(C(=O)NS(=O)(=O)c4ccc(NC[C@H]5CC[C@](C)(O)CC5)c([N+](=O)[O-])c4)c(Oc4cnc5[nH]ccc5c4)c3)CC2)=C(c2cc(-c3ccc(F)cc3F)cs2)C1` [Example 43, 2-((1H-pyrrolo[2,3-b]pyridin-5-yl)oxy)-4-(4-((2-(4-(2,4-difluorophenyl)thiophen-2-yl)-4,4-dimethylcyclohex-1-en-1-yl)methyl)piperazin-1-yl)-N-((4-((((1r,4r)-4-hydroxy-4-methylcyclohexyl)methyl)amino)-3-nitrophenyl)sulfonyl)benzamide], the IC50 on Bcl-2 WT amounted to 21.1 nM; in the assay on RS4; 11Bcl-2-G101V cells, 280 nM; in the assay on MV-4-11 cells it was 8 nM.
Take `CC1(C)CCC(CN2CCN(c3ccc(C(=O)NS(=O)(=O)c4ccc(NC[C@H]5COCCO5)c([N+](=O)[O-])c4)c(Oc4cnc5[nH]ccc5c4)c3)CC2)=C(c2cc(-c3ccc(Cl)cc3F)cs2)C1` [Example 44, (S)—N-((4-(((1,4-dioxan-2-yl)methyl)amino)-3-nitrophenyl)sulfonyl)-2-((1H-pyrrolo[2,3-b]pyridin-5-yl)oxy)-4-(4-((2-(4-(4-chloro-2-fluorophenyl)thiophen-2-yl)-4,4-dimethylcyclohex-1-en-1-yl)methyl)piperazin-1-yl)benzamide]: the IC50 on Bcl-2 WT amounted to 31 nM; with RS4; 11Bcl-2-G101V cells, 830 nM; in the assay on MV-4-11 cells it was 31 nM.
As for `CC1(C)CCC(CN2CCN(c3ccc(C(=O)NS(=O)(=O)c4ccc(NC[C@H]5CC[C@](C)(O)CC5)c([N+](=O)[O-])c4)c(Oc4cnc5[nH]ccc5c4)c3)CC2)=C(c2cc(-c3cc(F)c(F)c(F)c3)cs2)C1` [Example 45, 2-((1H-pyrrolo[2,3-b]pyridin-5-yl)oxy)-4-(4-((4,4-dimethyl-2-(4-(3,4,5-trifluorophenyl)thiophen-2-yl)cyclohex-1-en-1-yl)methyl)piperazin-1-yl)-N-((4-((((1r,4r)-4-hydroxy-4-methylcyclohexyl)methyl)amino)-3-nitrophenyl)sulfonyl)benzamide], the IC50 at Bcl-2 WT was determined as 33.8 nM; in the assay on RS4; 11Bcl-2-G101V cells, 1680 nM; in the assay with MV-4-11 cells, 57 nM.
